This test has as its target T1, Androgen Receptor (Homo sapiens, UniProt P10275).
T1 construct: endogenous in cells; host or cells: VCaP cells
T1 sequence (P10275 1-920): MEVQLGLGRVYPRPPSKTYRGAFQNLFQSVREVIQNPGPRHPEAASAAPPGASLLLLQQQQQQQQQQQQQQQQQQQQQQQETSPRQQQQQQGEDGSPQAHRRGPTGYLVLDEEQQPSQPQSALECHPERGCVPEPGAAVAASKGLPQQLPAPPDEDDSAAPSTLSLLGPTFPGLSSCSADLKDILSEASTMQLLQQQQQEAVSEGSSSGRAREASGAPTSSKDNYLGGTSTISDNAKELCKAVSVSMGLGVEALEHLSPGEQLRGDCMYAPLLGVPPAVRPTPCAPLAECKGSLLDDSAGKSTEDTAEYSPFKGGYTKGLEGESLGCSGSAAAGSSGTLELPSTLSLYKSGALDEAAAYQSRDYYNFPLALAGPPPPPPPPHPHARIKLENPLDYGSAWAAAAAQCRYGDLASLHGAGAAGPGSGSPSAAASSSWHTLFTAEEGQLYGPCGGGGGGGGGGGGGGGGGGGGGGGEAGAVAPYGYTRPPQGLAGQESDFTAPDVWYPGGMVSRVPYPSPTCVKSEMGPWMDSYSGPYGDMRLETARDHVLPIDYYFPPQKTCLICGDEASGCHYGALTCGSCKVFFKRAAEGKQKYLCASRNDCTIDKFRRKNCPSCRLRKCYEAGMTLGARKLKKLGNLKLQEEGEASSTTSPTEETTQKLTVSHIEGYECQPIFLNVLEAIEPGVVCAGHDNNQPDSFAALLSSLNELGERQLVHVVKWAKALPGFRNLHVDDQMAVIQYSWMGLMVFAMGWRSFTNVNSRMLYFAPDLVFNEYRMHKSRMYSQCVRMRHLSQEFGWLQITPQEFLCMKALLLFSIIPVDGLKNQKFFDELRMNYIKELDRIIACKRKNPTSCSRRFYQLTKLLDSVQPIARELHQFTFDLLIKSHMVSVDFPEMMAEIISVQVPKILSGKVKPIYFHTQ
As to the kind of experiment: Androgen Receptor ELISA assay (PathScan AR ELISA) in VCaP cells: AR degradation, Dmax and DC50. The test is classed as cell-based. The settings on record: Table 35; for DC50: read-out: VCaP DC50; for Dmax: VCaP. A digest of the protocol: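 VCaP cells in phenol red-free RPMI with 5% charcoal-stripped FBS were grown at least 3 days, then given compound as 7 half-log doses in 0.1% DMSO with 0.1 nM R1881 for 24 h. Lysates went into a sandwich AR ELISA with TMB read at 450 nm.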

[1] abbreviates: VCaP cells, read-out: VCaP Dmax (%).

Where two headings read alike, the source gives them in different places.

In the case of `CNC[C@H](NC(=O)[C@@H]1C[C@@H](O)CN1C(=O)[C@@H](NC(=O)COCCCCCOc1ccc(C(=O)N[C@H]2C(C)(C)[C@H](Oc3ccc(C#N)c(Cl)c3)C2(C)C)cc1)C(C)(C)C)c1ccc(-c2scnc2C)cc1` [Example 515], under “VCaP cells”, the DC50 was below 50 nM. The Dmax under setting [1] is above 71%.
On to `Cc1ncsc1-c1ccc(CNC(=O)[C@@H]2C[C@@H](O)CN2C(=O)[C@@H](NC(=O)COCCCCCNc2ccc(C(=O)N[C@H]3C(C)(C)[C@H](Oc4ccc(C#N)c(Cl)c4)C3(C)C)cc2)C(C)(C)C)cn1` [Example 516], for which the DC50 (VCaP cells) is below 50 nM. Further, the greatest degradation seen (Dmax) under setting [1] is above 71%.
The like results for `C[C@H](NC(=O)[C@@H]1C[C@@H](O)CN1C(=O)[C@@H](NC(=O)COCCCCCNc1ccc(C(=O)N[C@H]2C(C)(C)[C@H](Oc3ccc(C#N)c(Cl)c3)C2(C)C)cc1)C(C)(C)C)c1ccc(-c2c[nH]nn2)cc1` [Example 517] were, in that order, below 50 nM and above 71%.
Regarding `CC(C)(C)[C@H](NC(=O)COCCCCCNc1ccc(C(=O)N[C@H]2C(C)(C)[C@H](Oc3ccc(C#N)c(Cl)c3)C2(C)C)cc1)C(=O)N1C[C@H](O)C[C@H]1C(=O)NCc1ccc(-c2nnn[nH]2)cc1` [Example 518], where the note is “VCaP cells”, the DC50 is above 501 nM. Also, the Dmax (read-out: VCaP Dmax (%), VCaP cells) was below 25%.
For the compound `COC(=O)[C@@H]1C[C@@H](O)CN1C(=O)[C@@H](NC(=O)COCCCCCOc1ccc(C(=O)N[C@H]2C(C)(C)[C@H](Oc3ccc(C#N)c(Cl)c3)C2(C)C)cc1)C(C)(C)C` [Example 519], the DC50 (VCaP cells) is below 50 nM. The Dmax under setting [1] lay in the range of 26 to 50%.
The like results for `CC(C)[C@H](NC(=O)COCCCCCNc1ccc(C(=O)N[C@H]2C(C)(C)[C@H](Oc3ccc(C#N)c(Cl)c3)C2(C)C)cc1)C(=O)N1C[C@H](O)C[C@H]1C(=O)NCc1ccc(C#N)cc1` [Example 520] were, in that order, above 501 nM and 26 to 50%.
As to `CC(C)(C)[C@H](NC(=O)COCCCCCNc1ccc(C(=O)N[C@H]2C(C)(C)[C@H](Oc3ccc(C#N)c(Cl)c3)C2(C)C)cc1)C(=O)N1C[C@H](O)C[C@H]1C(=O)NCc1ccc(-c2scnc2C#N)cc1` [Example 521], the DC50 (VCaP cells) is below 50 nM. The maximal degradation (Dmax) under setting [1] lay within 51 to 70%.
The like results for `COc1ccc(CNC(=O)[C@@H]2C[C@@H](O)CN2C(=O)[C@@H](NC(=O)COCCCCCNc2ccc(C(=O)N[C@H]3C(C)(C)[C@H](Oc4ccc(C#N)c(Cl)c4)C3(C)C)cc2)C(C)(C)C)cc1` [Example 522] were, in that order, below 50 nM and 51 to 70%.
The like results for `CC(C)(C)[C@H](NC(=O)COCCCCCNc1ccc(C(=O)N[C@H]2C(C)(C)[C@H](Oc3ccc(C#N)c(Cl)c3)C2(C)C)cc1)C(=O)N1C[C@H](O)C[C@H]1C(=O)NCc1ccc(C#N)nc1` [Example 523] were, in that order, below 50 nM and 51 to 70%.
The like results for `CC(C)(C)[C@H](NC(=O)COCCNc1ccc(-c2ccc(C(=O)N[C@H]3C(C)(C)[C@H](Oc4ccc(C#N)c(Cl)c4)C3(C)C)cc2)cc1)C(=O)N1C[C@H](O)C[C@H]1C(=O)NCc1ccc(C#N)cc1` [Example 524] were, in that order, below 50 nM and 51 to 70%.
With `Cc1ncsc1-c1ccc(CNC(=O)[C@@H]2C[C@@H](O)CN2C(=O)[C@@H](NC(=O)COCCN2CCC(c3ccc(C(=O)N[C@H]4C(C)(C)[C@H](Oc5ccc(C#N)c(Cl)c5)C4(C)C)cc3)CC2)C(C)(C)C)cc1` [Example 525], the DC50 (VCaP cells) was above 501 nM. Also, the Dmax under setting [1] was 51 to 70%.
As to `CC(C)(C)[C@H](NC(=O)COCCCCCNc1ccc(C(=O)N[C@H]2C(C)(C)[C@H](Oc3ccc(C#N)c(Cl)c3)C2(C)C)cc1)C(=O)N1C[C@H](O)C[C@H]1C(=O)NCc1ccc(-n2ccnn2)cc1` [Example 526], under “VCaP cells”, the DC50 is below 50 nM. In addition, under setting [1], the Dmax fell in the range of 51 to 70%.
Consider `CC(C)(C)[C@H](NC(=O)COCCCCCNc1ccc(C(=O)N[C@H]2C(C)(C)[C@H](Oc3ccc(C#N)c(Cl)c3)C2(C)C)cc1)C(=O)N1C[C@H](O)C[C@H]1C(=O)NCc1ccc(-n2nccn2)cc1` [Example 527], for which the DC50 (VCaP cells) is below 50 nM. Moreover, the Dmax under setting [1] lay within 26 to 50%.
Turning to `CC(C)(C)[C@H](NC(=O)COCCCCCNc1ccc(C(=O)N[C@H]2C(C)(C)[C@H](Oc3ccc(C#N)c(Cl)c3)C2(C)C)cc1)C(=O)N1C[C@H](O)C[C@H]1C(=O)NCc1ccc(-c2nnc[nH]2)cc1` [Example 528], for the setting “VCaP cells”, the DC50 is below 50 nM. Also, the Dmax under setting [1] was 51 to 70%.
The like results for `CC(C)(C)[C@H](NC(=O)COCCCCCNc1ccc(C(=O)N[C@H]2C(C)(C)[C@H](Oc3ccc(C#N)c(Cl)c3)C2(C)C)cc1)C(=O)N1C[C@H](O)C[C@H]1C(=O)NCc1ccc(-n2ccccc2=O)cc1` [Example 529] were, in that order, below 50 nM and below 25%.
Take `CC(C)(C)[C@H](NC(=O)COCCCCCNc1ccc(C(=O)N[C@H]2C(C)(C)[C@H](Oc3ccc(C#N)c(Cl)c3)C2(C)C)cc1)C(=O)N1C[C@H](O)C[C@H]1C(=O)NCc1ccc(-n2cncn2)cc1` [Example 530]: the DC50 (VCaP cells) is below 50 nM. Also, the Dmax under setting [1] was above 71%.
The corresponding values for `CC(C)(C)[C@H](NC(=O)COCCCCCNc1ccc(C(=O)N[C@H]2C(C)(C)[C@H](Oc3ccc(C#N)c(Cl)c3)C2(C)C)cc1)C(=O)N1C[C@H](O)C[C@H]1C(=O)NCc1ccc(-c2cccnn2)cc1` [Example 531] are below 50 nM and 26 to 50%.
The corresponding values for `CC(C)(C)[C@H](NC(=O)COCCCCCNc1ccc(C(=O)N[C@H]2C(C)(C)[C@H](Oc3ccc(C#N)c(Cl)c3)C2(C)C)cc1)C(=O)N1C[C@H](O)C[C@H]1C(=O)NCc1ccc(-c2cnccn2)cc1` [Example 532] are below 50 nM and 51 to 70%.
The like results for `CC(C)(C)[C@H](NC(=O)COCCCCCNc1ccc(C(=O)N[C@H]2C(C)(C)[C@H](Oc3ccc(C#N)c(Cl)c3)C2(C)C)cc1)C(=O)N1C[C@H](O)C[C@H]1C(=O)NCc1ccc(-c2ccncn2)cc1` [Example 533] were, in that order, below 50 nM and 26 to 50%.
Regarding `CC(C)(C)[C@H](NC(=O)COCCCCCNc1ccc(C(=O)N[C@H]2C(C)(C)[C@H](Oc3ccc(C#N)c(Cl)c3)C2(C)C)cc1)C(=O)N1C[C@H](O)C[C@H]1C(=O)NCc1ccc(-c2cncnc2)cc1` [Example 534], the 50% degradation concentration (DC50) (VCaP cells) is below 50 nM. Also, the Dmax under setting [1] fell in the range of 51 to 70%.
For the compound `CC(C)(C)[C@H](NC(=O)COCCCCCNc1ccc(C(=O)N[C@H]2C(C)(C)[C@H](Oc3ccc(C#N)c(Cl)c3)C2(C)C)cc1)C(=O)N1C[C@H](O)C[C@H]1C(=O)NCc1ccc(-c2ncccn2)cc1` [Example 535], the DC50 (VCaP cells) is below 50 nM. Further, the Dmax under setting [1] lay in the range of 26 to 50%.
The corresponding values for `CC(C)(C)[C@H](NC(=O)COCCCCCNc1ccc(C(=O)N[C@H]2C(C)(C)[C@H](Oc3ccc(C#N)c(Cl)c3)C2(C)C)cc1)C(=O)N1C[C@H](O)C[C@H]1C(=O)NCc1ccc(-c2ccccn2)cc1` [Example 536] are below 50 nM and 26 to 50%.
For the compound `Cc1ncsc1-c1ccc(CNC(=O)[C@@H]2C[C@@H](O)CN2C(=O)[C@@H](NC(=O)COCCCCCNc2ccc(C(=O)N[C@H]3C(C)(C)[C@H](Oc4ccc(C#N)c(Cl)c4)C3(C)C)cc2)C(C)C)cc1` [Example 537], the DC50 (VCaP cells) is below 50 nM. For the same compound, the Dmax under setting [1] was 26 to 50%.
The like results for `Cc1ncsc1-c1ccc(CNC(=O)[C@@H]2C[C@@H](O)CN2C(=O)[C@@H](NC(=O)COCCCCCNc2ccc(C(=O)N[C@H]3C(C)(C)[C@H](Oc4ccc(C#N)c(Cl)c4)C3(C)C)cc2)C(C)(C)C)nc1` [Example 538] were, in that order, above 501 nM and 51 to 70%.
The like results for `CC(C)(C)[C@H](NC(=O)COCCCCCNc1ccc(C(=O)N[C@H]2C(C)(C)[C@H](Oc3ccc(C#N)c(Cl)c3)C2(C)C)cc1)C(=O)N1C[C@H](O)C[C@H]1C(=O)NCc1ccc(C#N)cn1` [Example 539] were, in that order, below 50 nM and 26 to 50%.
The like results for `CC(C)(C)[C@H](NC(=O)COCCNc1ccc(-c2ccc(C(=O)N[C@H]3C(C)(C)[C@H](Oc4ccc(C#N)c(Cl)c4)C3(C)C)cc2)cn1)C(=O)N1C[C@H](O)C[C@H]1C(=O)NCc1ccc(C#N)cc1` [Example 540] were, in that order, below 50 nM and above 71%.
As for `C[C@H](NC(=O)[C@@H]1C[C@@H](O)CN1C(=O)[C@@H](NC(=O)COCCCCCNc1ccc(C(=O)N[C@H]2C(C)(C)[C@H](Oc3ccc(C#N)c(Cl)c3)C2(C)C)cc1)C(C)(C)C)c1ccc(C#N)cc1` [Example 541], the half-maximal degradation concentration (DC50) (VCaP cells) was below 50 nM. For the same compound, the Dmax under setting [1] is above 71%.
The corresponding values for `CC(C)(C)[C@H](NC(=O)COCCCCCNc1ccc(C(=O)N[C@H]2C(C)(C)[C@H](Oc3ccc(C#N)c(Cl)c3)C2(C)C)cc1)C(=O)N1C[C@H](O)C[C@H]1C(=O)NCc1ccc(C#N)cc1` [Example 542] are below 50 nM and above 71%.

(Values after patent US11427548B2 (Arvinas Operations, Inc., priority 2015, dated 2022).)
